Results from BindingDB's records for doi:10.1021/acsmedchemlett.7b00188 (Wuxi Apptec (Shanghai), 2017).
pEC50: −log10 of the molar value.

Test: Inhibition of Enterovirus 71 Shenzhen/120F1/09 capsid infected in human RD cells assessed as reduction in virus-induced cell death after 72 hrs by CCK-8 assay

SMILES | pEC50
Nc1cc(N2CCN(CCCCCOc3ccc(-c4ccc(Cl)cc4)cc3)S2(=O)=O)ccn1 | 7.92
O=C1N(CCCCC2CCc3cc(-c4ccc(Cl)cc4)ccc3O2)CCN1c1ccncc1 (configuration not stated) | 7.32
O=S1(=O)N(CCCCCOc2ccc(-c3ccc(Cl)cc3)cc2)CCN1c1ccncc1 | 6.96
S=C1N(CCCCCOc2ccc(-c3ccc(Cl)cc3)cc2)CCN1c1ccncc1 | 5.55
O=C1CN(CCCCCOc2ccc(-c3ccc(Cl)cc3)cc2)CCN1c1ccncc1 | 5.92
CCO/N=C1\CCc2cc(OCCCCCN3CCN(c4ccnc(N)c4)S3(=O)=O)ccc21 | 8.40
CCO/N=C(\C)c1ccc(OCCCCCN2CCN(c3ccnc(N)c3)S2(=O)=O)cc1 | 6.22
CCO/N=C/c1ccc(OCCCCCN2CCN(c3ccnc(N)c3)S2(=O)=O)cc1 | 9.05
O=C1N(CCCCc2nc3cc(-c4ccc(Cl)cc4)ccc3o2)CCN1c1ccncc1 | 5.96
O=C1CC(CCCCN2CCN(c3ccncc3)C2=O)Oc2ccc(-c3ccc(Cl)cc3)cc21 (configuration not stated) | 6.27
CCn1ccc2cc(OCCCCCN3CCN(c4ccnc(N)c4)S3(=O)=O)ccc21 | < 6.00
CCc1noc2cc(OCCCCCN3CCN(c4ccnc(N)c4)S3(=O)=O)ccc12 | 6.45
CCO/N=C/c1ccc(OCCC(C)CCN2CCN(c3ccnc(N)c3)C2=O)cc1 (configuration not stated) | 10.52
O=C1CN(c2ccncc2)CCN1CCCCCOc1ccc(-c2ccc(Cl)cc2)cc1 | 6.74
CCO/N=C(\CC)c1ccc(OCCCCCN2CCN(c3ccnc(N)c3)S2(=O)=O)cc1 | 6.26
O=C1N(CCCCc2cc3cc(-c4ccc(Cl)cc4)ccc3o2)CCN1c1ccncc1 | 5.96
CCO/N=C1\CCCc2cc(OCCCCCN3CCN(c4ccnc(N)c4)S3(=O)=O)ccc21 | 6.51
CCn1ncc2cc(OCCCCCN3CCN(c4ccnc(N)c4)S3(=O)=O)ccc21 | < 6.00
O=C1C(=O)N(c2ccncc2)CCN1CCCCCOc1ccc(-c2ccc(Cl)cc2)cc1 | < 6.00
O=C1N(CCCCCOc2ccc(-c3ccc(Cl)cc3)cc2)CCN1c1ccncc1 [1-[5-(4''-Chloro-biphenyl-4-yloxy)-pentyl]-3-pyridin-4-yl-imidazolidin-2-one] | 7.04
Cc1cc(CCCOc2c(C)cc(-c3noc(C(F)(F)F)n3)cc2C)on1 [3-(3,5-dimethyl-4-(3-(3-methylisoxazol-5-yl)propoxy)phenyl)-5-(trifluoromethyl)-1,2,4-oxadiazole] | < 4.00
NC(=O)c1ncn([C@@H]2O[C@H](CO)[C@@H](O)[C@H]2O)n1 [Tribavirin] | < 4.00
